US20260007758A1, “SO[…]-2 RECEPTOR (SST2R) NON-PEPTIDE DRUG CONJUGATES AND USES THEREOF” (Crinetics Pharmaceuticals, Inc., priority 2024, published 2026)

How the values were obtained:
Assay type in all cases: cell-based
[1] = system: NCI-H524 human small cell lung cancer cells; assay: H524 assay: inhibition of cell proliferation (CellTiter Glo); conditions: 2 h treatment, washout, additional 70 h incubation
Summary of the method: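 NCI-H524 cells were exposed for 2 h to NDC in an 11-point two-fold series starting at 1 uM. The drug was then washed out and cells grew a further 70 h. CellTiter Glo luminescence gave % inhibition versus untreated control, and IC50 came from a four-parameter nonlinear regression.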

[2] = molecular target: T1, human somatostatin receptor subtype 2 (Homo sapiens, UniProt P30874); assay: Functional assay for SSTR2 agonists (HTRF cAMP); conditions: CHO-K1 cells stably expressing human SST2; NKH477-stimulated cAMP; 20 min at 37 C; read-out: hSST2 cAMP Avg EC50
T1 construct: expressed in transfected cells
T1 sequence (P30874 whole entry): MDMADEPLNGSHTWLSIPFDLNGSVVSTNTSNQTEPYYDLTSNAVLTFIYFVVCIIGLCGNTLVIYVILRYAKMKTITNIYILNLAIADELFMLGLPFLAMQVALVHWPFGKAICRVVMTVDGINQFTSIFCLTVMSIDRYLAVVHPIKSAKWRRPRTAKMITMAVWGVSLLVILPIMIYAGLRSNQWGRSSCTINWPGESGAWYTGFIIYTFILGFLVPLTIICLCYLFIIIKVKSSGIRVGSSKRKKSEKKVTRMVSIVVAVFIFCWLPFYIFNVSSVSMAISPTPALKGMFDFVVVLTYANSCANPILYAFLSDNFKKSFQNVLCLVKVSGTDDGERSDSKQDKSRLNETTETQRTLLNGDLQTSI
Summary of the method: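 CHO-K1 cells stably expressing human SSTR2 treated with compound (typically 0-10,000 nM final) for 20 min at 37 °C. Lysate cAMP measured by HTRF (665/620 nm ratio), converted via standard curve; EC50 from cAMP vs concentration.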

SST2 = molecular target: T2, SST2 (Homo sapiens, UniProt P30874); assay: PathHunter CHO-K1 SST2 Internalization Assay; conditions: PathHunter CHO-K1 SST2 cells; 90 min at 37 C; luminescence; read-out: Internalization EC50
T2 construct: host or cells: PathHunter CHO-K1 SST2 cells
T2 sequence (P30874 whole entry): as above
Summary of the method: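 CHO-K1 cells expressing human SST2, 2500 cells/well, grown 48 h, then exposed 90 min at 37 C to 11-point 1:3 NDC dilutions (final top 10 uM). Beta-Glo luminescence after 60 min at room temperature; four-parameter IC50, duplicate mean, background-corrected.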

Row | SMILES | EC50 [1] [nM] | EC50 [2] [nM] | EC50 (SST2) [nM]
1 | CC[C@H](C)[C@@H]([C@@H](CC(=O)N1CCC[C@H]1[C@H](OC)[C@@H](C)C(=O)N[C@H](C)[C@@H](O)c1ccccc1)OC)N(C)C(=O)[C@@H](NC(=O)C(C(C)C)N(C)C(=O)OCc1ccc(NC(=O)[C@H](CCCNC(N)=O)NC(=O)[C@@H](NC(=O)CCOCCC(=O)NCCNc2ncc(-c3cc(C)cc(F)c3)c(N3CCC(N)CC3)c2-c2nc3ccc(Cl)cc3[nH]2)C(C)C)c(O[C@@H]2O[C@H](C(=O)N3CCN(C)CC3)[C@@H](O)[C@H](O)[C@H]2O)c1)C(C)C (stereo partly drawn) [Compound 226] | 4.3 | 0.28 | 9.3
2 | CC[C@H](C)[C@@H]([C@@H](CC(=O)N1CCC[C@H]1[C@H](OC)[C@@H](C)C(=O)N[C@H](C)[C@@H](O)c1ccccc1)OC)N(C)C(=O)[C@@H](NC(=O)C(C(C)C)N(C)C(=O)OCc1ccc(NC(=O)[C@H](CCCNC(N)=O)NC(=O)[C@@H](NC(=O)CCOCCC(=O)NCCNc2ncc(-c3cc(C)cc(F)c3)c(N3CCC(N)CC3)c2-c2nc3ccc(Cl)cc3[nH]2)C(C)C)c(O[C@@H]2O[C@H](C(=O)N3CCN(CC(=O)O)CC3)[C@@H](O)[C@H](O)[C@H]2O)c1)C(C)C (stereo partly drawn) [Compound 227] | 11 | 0.078 | 3.1
3 | CC[C@H](C)[C@@H]([C@@H](CC(=O)N1CCC[C@H]1[C@H](OC)[C@@H](C)C(=O)N[C@H](C)[C@@H](O)c1ccccc1)OC)N(C)C(=O)[C@@H](NC(=O)C(C(C)C)N(C)C(=O)OCc1ccc(NC(=O)[C@H](CCCNC(N)=O)NC(=O)[C@@H](NC(=O)CCOCCC(=O)NCCNc2ncc(-c3cc(C)cc(F)c3)c(N3CCC(N)CC3)c2-c2nc3ccc(Cl)cc3[nH]2)C(C)C)c(O[C@@H]2O[C@H](C(=O)N3CCCCC3)[C@@H](O)[C@H](O)[C@H]2O)c1)C(C)C (stereo partly drawn) [Compound 228] | 36 | 0.26 | 10
4 | CC[C@H](C)[C@@H]([C@@H](CC(=O)N1CCC[C@H]1[C@H](OC)[C@@H](C)C(=O)N[C@H](C)[C@@H](O)c1ccccc1)OC)N(C)C(=O)[C@@H](NC(=O)C(C(C)C)N(C)C(=O)OCc1ccc(NC(=O)[C@H](CCCNC(N)=O)NC(=O)[C@@H](NC(=O)CCOCCC(=O)NCCNc2ncc(-c3cc(C)cc(F)c3)c(N3CCC(N)CC3)c2-c2nc3ccc(Cl)cc3[nH]2)C(C)C)c(O[C@@H]2O[C@H](C(=O)N3CCN(CCO)CC3)[C@@H](O)[C@H](O)[C@H]2O)c1)C(C)C (stereo partly drawn) [Compound 229] | 4 | 0.1 | 4.8
5 | CC[C@H](C)[C@@H]([C@@H](CC(=O)N1CCC[C@H]1[C@H](OC)[C@@H](C)C(=O)N[C@H](C)[C@@H](O)c1ccccc1)OC)N(C)C(=O)[C@@H](NC(=O)[C@H](C(C)C)N(C)C(=O)OCc1ccc(NC(=O)[C@H](CCCNC(N)=O)NC(=O)[C@@H](NC(=O)CCOCCC(=O)NCCNc2ncc(-c3cc(C)cc(F)c3)c(N3CCC(N)CC3)c2-c2nc3ccc(Cl)cc3[nH]2)C(C)C)c(O[C@@H]2O[C@H](C(=O)NCCOCCC(=O)O)[C@@H](O)[C@H](O)[C@H]2O)c1)C(C)C [Compound 230] | 14 | 0.095 | 4.2
6 | CC[C@H](C)[C@@H]([C@@H](CC(=O)N1CCC[C@H]1[C@H](OC)[C@@H](C)C(=O)N[C@H](C)[C@@H](O)c1ccccc1)OC)N(C)C(=O)[C@@H](NC(=O)[C@H](C(C)C)N(C)C(=O)OCc1ccc(NC(=O)[C@H](CCCNC(N)=O)NC(=O)[C@@H](NC(=O)CCOCCC(=O)NCCNc2ncc(-c3cc(C)cc(F)c3)c(N3CCC(N)CC3)c2-c2nc3ccc(Cl)cc3[nH]2)C(C)C)c(O[C@@H]2O[C@H](C(=O)N(C)CCOCCC(=O)O)[C@@H](O)[C@H](O)[C@H]2O)c1)C(C)C [Compound 231] | 49 | 0.33 | 12
